Results published in ChEMBL document CHEMBL3885881, “DrugMatrix”.

Species on record: Rattus norvegicus
Assay: DrugMatrix - Regimen: Daily Repeat
Type: toxicity, organism-based, Sprague-Dawley
Set-up: regimen Daily Repeat, gender Male, age 6-8 weeks
Details: in vivo, po, route oral GAVAGE, vehicle .5 % CMC; for ABSOLUTE BASOPHIL / ABSOLUTE EOSINOPHIL / ABSOLUTE LYMPHOCYTE / ABSOLUTE MONOCYTE / ABSOLUTE SEGMENTED NEUTROPHIL / BASOPHIL / EOSINOPHIL / ERYTHROCYTE COUNT / HEMATOCRIT / HEMOGLOBIN / LEUKOCYTE COUNT / LYMPHOCYTE / MEAN CORPUSCULAR HEMOGLOBIN / MEAN CORPUSCULAR HEMOGLOBIN CONCENTRATION / MEAN CORPUSCULAR VOLUME / MONOCYTE / NEUTROPHIL / NUCLEATED RED BLOOD CELLS / PLATELET COUNT: tissue Blood; for ALANINE AMINOTRANSFERASE / ALBUMIN / ALKALINE PHOSPHATASE / ASPARTATE AMINOTRANSFERASE / BLOOD UREA NITROGEN / CARBON DIOXIDE / CHLORIDE / CHOLESTEROL / CREATINE PHOSPHOKINASE / CREATININE / GLUCOSE / LACTATE DEHYDROGENASE / LIPASE / PHOSPHORUS / POTASSIUM / SODIUM / TOTAL BILIRUBIN / TOTAL PROTEIN / URIC ACID: tissue Plasma
[1] = 0 mg/kg, 72 h, dose level Control, time 3 day
[2] = 0 mg/kg, 120 h, dose level Control, time 5 day
[3] = 250 mg/kg, 72 h, dose level High, time 3 day

Structure (SMILES): C#C[C@]1(O)CC[C@H]2[C@@H]3CCc4cc(OC)ccc4[C@H]3CC[C@@]21C [MESTRANOL]
- ABSOLUTE BASOPHIL [1]: 0 CELLS/uL
- ABSOLUTE EOSINOPHIL [1]: 0 CELLS/uL
- ABSOLUTE LYMPHOCYTE [1]: 12269.67 CELLS/uL
- ABSOLUTE MONOCYTE [1]: 160.33 CELLS/uL
- ABSOLUTE SEGMENTED NEUTROPHIL [1]: 970 CELLS/uL
- BASOPHIL [1]: 0%
- EOSINOPHIL [1]: 0%
- ERYTHROCYTE COUNT [1]: 5.76 x10E6/uL
- HEMATOCRIT [1]: 36.57%
- HEMOGLOBIN [1]: 14.22 G/DL
- LEUKOCYTE COUNT [1]: 13.4 x10E3/uL
- LYMPHOCYTE [1]: 91.67%
- MEAN CORPUSCULAR HEMOGLOBIN [1]: 24.67 pg
- MEAN CORPUSCULAR HEMOGLOBIN CONCENTRATION [1]: 38.85 G/DL
- MEAN CORPUSCULAR VOLUME [1]: 63.52 fL
- MONOCYTE [1]: 1.17%
- NEUTROPHIL [1]: 7.17%
- NUCLEATED RED BLOOD CELLS [1]: 0.33 /100WBC
- PLATELET COUNT [1]: 1250.83 x10E3/uL
- ALANINE AMINOTRANSFERASE [1]: 49.17 u/L
- ALBUMIN [1]: 4.33 G/DL
- ALKALINE PHOSPHATASE [1]: 378.5 u/L
- ASPARTATE AMINOTRANSFERASE [1]: 82.17 u/L
- BLOOD UREA NITROGEN [1]: 15 mg/dL
- CARBON DIOXIDE [1]: 34.33 mmol/L
- CHLORIDE [1]: 99.17 MEQ/L
- CHOLESTEROL [1]: 71.17 mg/dL
- CREATINE PHOSPHOKINASE [1]: 258.67 u/L
- CREATININE [1]: 0.18 mg/dL
- GLUCOSE [1]: 142.67 mg/dL
- LACTATE DEHYDROGENASE [1]: 154.33 u/L
- LIPASE [1]: 9 u/L
- PHOSPHORUS [1]: 11.67 mg/dL
- POTASSIUM [1]: 7.13 MEQ/L
- SODIUM [1]: 142.22 MEQ/L
- TOTAL BILIRUBIN [1]: 0.18 mg/dL
- TOTAL PROTEIN [1]: 5.77 G/DL
- URIC ACID [1]: 1.55 mg/dL
- ABSOLUTE BASOPHIL [2]: 0 CELLS/uL
- ABSOLUTE EOSINOPHIL [2]: 23.33 CELLS/uL
- ABSOLUTE LYMPHOCYTE [2]: 14943.67 CELLS/uL
- ABSOLUTE MONOCYTE [2]: 32 CELLS/uL
- ABSOLUTE SEGMENTED NEUTROPHIL [2]: 1084.33 CELLS/uL
- BASOPHIL [2]: 0%
- EOSINOPHIL [2]: 0.17%
- ERYTHROCYTE COUNT [2]: 5.71 x10E6/uL
- HEMATOCRIT [2]: 35.28%
- HEMOGLOBIN [2]: 14.27 G/DL
- LEUKOCYTE COUNT [2]: 16.08 x10E3/uL
- LYMPHOCYTE [2]: 93%
- MEAN CORPUSCULAR HEMOGLOBIN [2]: 25.02 pg
- MEAN CORPUSCULAR HEMOGLOBIN CONCENTRATION [2]: 40.43 G/DL
- MEAN CORPUSCULAR VOLUME [2]: 61.82 fL
- MONOCYTE [2]: 0.17%
- NEUTROPHIL [2]: 6.67%
- NUCLEATED RED BLOOD CELLS [2]: 0.33 /100WBC
- PLATELET COUNT [2]: 1274 x10E3/uL
- ALANINE AMINOTRANSFERASE [2]: 54.17 u/L
- ALBUMIN [2]: 4.22 G/DL
- ALKALINE PHOSPHATASE [2]: 373.17 u/L
- ASPARTATE AMINOTRANSFERASE [2]: 81.83 u/L
- BLOOD UREA NITROGEN [2]: 16.67 mg/dL
- CARBON DIOXIDE [2]: 30.33 mmol/L
- CHLORIDE [2]: 99 MEQ/L
- CHOLESTEROL [2]: 71 mg/dL
- CREATINE PHOSPHOKINASE [2]: 273.5 u/L
- CREATININE [2]: 0.22 mg/dL
- GLUCOSE [2]: 141.83 mg/dL
- LACTATE DEHYDROGENASE [2]: 153.67 u/L
- LIPASE [2]: 10.33 u/L
- PHOSPHORUS [2]: 11.38 mg/dL
- POTASSIUM [2]: 7.08 MEQ/L
- SODIUM [2]: 142.75 MEQ/L
- TOTAL BILIRUBIN [2]: 0.18 mg/dL
- TOTAL PROTEIN [2]: 6.1 G/DL
- URIC ACID [2]: 1.67 mg/dL
- ABSOLUTE BASOPHIL [3]: 0 CELLS/uL
- ABSOLUTE EOSINOPHIL [3]: 55.33 CELLS/uL
- ABSOLUTE LYMPHOCYTE [3]: 13434.33 CELLS/uL
- ABSOLUTE MONOCYTE [3]: 105 CELLS/uL
- ABSOLUTE SEGMENTED NEUTROPHIL [3]: 1338.67 CELLS/uL
- BASOPHIL [3]: 0%
- EOSINOPHIL [3]: 0.33%
- ERYTHROCYTE COUNT [3]: 5.62 x10E6/uL
- HEMATOCRIT [3]: 34.97%
- HEMOGLOBIN [3]: 13.77 G/DL
- LEUKOCYTE COUNT [3]: 14.93 x10E3/uL
- LYMPHOCYTE [3]: 89.67%
- MEAN CORPUSCULAR HEMOGLOBIN [3]: 24.5 pg
- MEAN CORPUSCULAR HEMOGLOBIN CONCENTRATION [3]: 39.37 G/DL
- MEAN CORPUSCULAR VOLUME [3]: 62.23 fL
- MONOCYTE [3]: 0.67%
- NEUTROPHIL [3]: 9.33%
- NUCLEATED RED BLOOD CELLS [3]: 0 /100WBC
- PLATELET COUNT [3]: 1230 x10E3/uL
- ALANINE AMINOTRANSFERASE [3]: 46.67 u/L
- ALBUMIN [3]: 4.03 G/DL
- ALKALINE PHOSPHATASE [3]: 693.33 u/L
- ASPARTATE AMINOTRANSFERASE [3]: 67.67 u/L
- BLOOD UREA NITROGEN [3]: 10.33 mg/dL
- CARBON DIOXIDE [3]: 32 mmol/L
- CHLORIDE [3]: 102.67 MEQ/L
- CHOLESTEROL [3]: 11.33 mg/dL
- CREATINE PHOSPHOKINASE [3]: 168.67 u/L
- CREATININE [3]: 0.16 mg/dL
- GLUCOSE [3]: 157 mg/dL
- LACTATE DEHYDROGENASE [3]: 250.33 u/L
- LIPASE [3]: 7.33 u/L
- PHOSPHORUS [3]: 11.57 mg/dL
- POTASSIUM [3]: 6.36 MEQ/L
- SODIUM [3]: 145.73 MEQ/L
- TOTAL BILIRUBIN [3]: 0.23 mg/dL
- TOTAL PROTEIN [3]: 5.73 G/DL
